According to paper PMC8187357 (Communications Biology, 2021):
Where “and” joins values, the source holds several entries; their conditions need not be identical. Identical values can stand only once.

Key:
NeuropeptideY Y2 = target: T1, NeuropeptideY Y2 (Homo sapiens, UniProt P49146); test: Y2 assay, determination of IC50 (CEREP follow-up); type: binding
T1 construct: Eurofins Cerep Panlabs (contract laboratory)
Procedure: (§1) CEREP 80 panel assay was carried out by Eurofins Cerep Panlabs facility at France. A series of binding assays was carried out to understand the off-target toxicity of CA-170. CA-170 was tested at 10 μM test concentration in duplicates. Compound binding was calculated as a % inhibition of the binding of a radioactively labeled ligand specific for each target. In each experiment the respective reference compound was tested concurrently with CA-170, and the data were compared with historical values determined at Eurofins. The experiment was accepted in accordance with Eurofins validation standard operating procedure. The results are expressed as a percent of control specific binding; (measured specific binding / control specific binding) × 100 and as a percent inhibition of control specific binding; 100−(measured specific binding / control specific binding) × 100 obtained in the presence of CA-170. The IC50 values (concentration causing a half-maximal inhibition of control specific binding) and Hill coefficients (nH) were determined by non-linear regression analysis of the competition curves generated with mean replicate values using Hill equation curve fitting.
Opioid & Opioid like DOP, KOP, MOP, NOP ≤9
Nuclear receptors GR, PPARγ ≤7
Ion Channels Ca2+, Kv, Skca, […] 1
Amine transporters DA, NE, 5HT ≤1
25% effect at the highest validated testing concentration.

Adenosine A1, A2A, A3 = test: CEREP 80 panel binding: Adenosine; settings: 10 µM
Procedure: as §1

Somatostatin sst = test: CEREP 80 panel binding: Somatostatin; settings: 10 µM
Procedure: as §1

[1] = test system: advanced (stage 4) non-squamous NSCLC; design: method as in doi:10.1093/annonc/mdz253.035; settings: Phase 2, cited from earlier work
NFAT reporter = test system: NFAT reporter; design: method as in PMID 31374878; settings: cited from earlier work
PD-L2 [2] = target: T2, PD-L2 (Homo sapiens, UniProt Q9BQ51); test: Rescue of proliferation inhibited by PD-L2, human PBMC; type: cell-based; settings: mean ± S.D.; n=3
T2 construct: purchased R&D systems 1224-PL-100
T2 sequence (Q9BQ51 with tags, fused parts or gaps limits assumed): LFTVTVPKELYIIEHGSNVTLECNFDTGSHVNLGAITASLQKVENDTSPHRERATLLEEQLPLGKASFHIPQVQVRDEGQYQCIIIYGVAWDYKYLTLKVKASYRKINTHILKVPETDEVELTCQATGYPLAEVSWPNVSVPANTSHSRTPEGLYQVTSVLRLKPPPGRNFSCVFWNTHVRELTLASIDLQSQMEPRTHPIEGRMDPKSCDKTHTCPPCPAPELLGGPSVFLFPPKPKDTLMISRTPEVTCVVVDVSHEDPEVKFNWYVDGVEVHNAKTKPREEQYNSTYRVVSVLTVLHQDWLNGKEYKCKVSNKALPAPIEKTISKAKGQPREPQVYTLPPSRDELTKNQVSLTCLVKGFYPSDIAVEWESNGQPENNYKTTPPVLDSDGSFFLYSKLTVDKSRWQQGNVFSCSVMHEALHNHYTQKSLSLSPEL
Procedure: (§2) The ability of peptides, peptidomimetics, and small molecules were analyzed for their ability to rescue T-cell proliferation or IFN-γ release from the inhibitory activity of PD-L1 or PD-L2 in a splenocyte/PBMC-based functional assay as per the protocols reported in publication. […] For all in vitro assays, test agent stock was prepared in water and diluted further in the assay media to achieve test concentrations. Each experimental condition was carried out in triplicates. Percent rescue for a given test compound concentration was calculated by normalizing individual percent test agent proliferation or IFN-γ release values to percent anti-CD3 and anti-CD28 antibodies stimulated proliferation or IFN-γ release. EC50 values were derived by plotting transformed data into non-linear fit in sigmoidal dose–response curve using GraphPad Prism software (Version 7).

[3] = test system: B7.1-CD28 co-stimulatory pathway; test: CD28-B7.1 functional assay (IL-2, Jurkat T cells); type: cell-based, human; settings: for IL2: Jurkat + PHA 5 µg/mL + B7.1 1 µg/mL, replicates
Procedure: Impact of CA-170 on immunostimulatory interaction was examined in a Jurkat T-cell-based assay in which the ability of B7-1 to induce production of IL-2 was monitored upon stimulation with PHA. Briefly, Jurkat T cells (0.25 × 10^5 cells/well of a 96-well plate) grown and starved in serum-free RPMI1640 media for 2 h were stimulated with PHA (5 µg/mL) and B7.1 (1.0 µg/mL) and different concentrations of CA-170 and cultured for 48 h at 37 °C. After indicated time of incubation, culture supernatant was analyzed for IL-2 by ELISA. Anti-CD28 antibody and isotypes were used as controls.

Glutamate PCP = test: CEREP 80 panel binding: Glutamate; settings: 10 µM
Procedure: as §1

PD-L2 [4] = target: T3, PD-L2 (Mus musculus, UniProt Q9WUL5); test: Rescue of IFN-γ release inhibited by PD-L2, mouse splenocytes; type: cell-based; settings: mean ± S.D.; n=2; read-out: Mouse Splenocyte IFN-γ Rescue EC50 PD-L2
T3 construct: purchased R&D Systems 1022-PL-100
T3 sequence (Q9WUL5 with tags, fused parts or gaps limits assumed): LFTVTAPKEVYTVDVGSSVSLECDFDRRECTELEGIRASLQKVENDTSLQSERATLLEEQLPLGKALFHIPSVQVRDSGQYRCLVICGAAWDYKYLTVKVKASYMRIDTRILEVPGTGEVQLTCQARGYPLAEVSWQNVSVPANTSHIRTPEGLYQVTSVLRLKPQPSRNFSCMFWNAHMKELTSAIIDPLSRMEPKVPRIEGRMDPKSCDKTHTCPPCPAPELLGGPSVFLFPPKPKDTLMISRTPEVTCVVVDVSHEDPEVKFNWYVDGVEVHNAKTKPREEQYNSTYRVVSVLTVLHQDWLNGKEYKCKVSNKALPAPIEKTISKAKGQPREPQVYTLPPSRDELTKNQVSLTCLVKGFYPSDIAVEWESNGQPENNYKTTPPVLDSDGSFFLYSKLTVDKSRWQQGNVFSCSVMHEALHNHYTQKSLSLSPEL
Procedure: as §2

GABA = test: CEREP 80 panel binding: GABA; settings: 10 µM
Procedure: as §1

purinergic P2X, P2Y = test: CEREP 80 panel binding: purinergic; settings: 10 µM
Procedure: as §1

Galanin GAL1, GAL2 = test: CEREP 80 panel binding: Galanin; settings: 10 µM
Procedure: as §1

PD-L1 = PD-L1 (Homo sapiens, UniProt Q9NZQ7); test: Rescue of IFN-γ release inhibited by PD-L1, human PBMC; type: cell-based; design: purchased R&D systems 156-B7-100; settings: for IFNγ Rescue (%): inhibited by PD-L1; for IFNγ Rescue (%) / IFN-γ: replicates; for IFN-γ: human PBMCs + anti-CD3/anti-CD28 + PD-L1 10 nM
PD-L1, sequence (Q9NZQ7 with tags, fused parts or gaps limits assumed): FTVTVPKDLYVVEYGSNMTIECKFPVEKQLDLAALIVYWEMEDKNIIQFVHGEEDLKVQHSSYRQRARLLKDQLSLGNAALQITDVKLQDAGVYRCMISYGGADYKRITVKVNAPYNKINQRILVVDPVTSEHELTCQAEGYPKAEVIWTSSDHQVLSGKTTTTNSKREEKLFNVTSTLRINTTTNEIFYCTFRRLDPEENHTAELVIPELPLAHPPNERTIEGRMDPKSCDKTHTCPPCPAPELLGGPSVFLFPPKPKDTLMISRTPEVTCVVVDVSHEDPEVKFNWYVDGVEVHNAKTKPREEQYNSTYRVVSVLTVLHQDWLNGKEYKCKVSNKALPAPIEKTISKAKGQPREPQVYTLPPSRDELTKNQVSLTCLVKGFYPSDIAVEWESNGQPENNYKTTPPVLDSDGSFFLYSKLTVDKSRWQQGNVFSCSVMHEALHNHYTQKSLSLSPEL
Procedure: as §2

[5] = test system: BZD (peripheral), BZD (central); test: CEREP 80 panel binding: Benzodiazepine; settings: 10 µM
Procedure: as §1

[6] = test system: Dopamine D1, D2S, D3, D44, D5; test: CEREP 80 panel binding: Dopamine; settings: 10 µM
Procedure: as §1

T1 sequence (P49146 whole entry): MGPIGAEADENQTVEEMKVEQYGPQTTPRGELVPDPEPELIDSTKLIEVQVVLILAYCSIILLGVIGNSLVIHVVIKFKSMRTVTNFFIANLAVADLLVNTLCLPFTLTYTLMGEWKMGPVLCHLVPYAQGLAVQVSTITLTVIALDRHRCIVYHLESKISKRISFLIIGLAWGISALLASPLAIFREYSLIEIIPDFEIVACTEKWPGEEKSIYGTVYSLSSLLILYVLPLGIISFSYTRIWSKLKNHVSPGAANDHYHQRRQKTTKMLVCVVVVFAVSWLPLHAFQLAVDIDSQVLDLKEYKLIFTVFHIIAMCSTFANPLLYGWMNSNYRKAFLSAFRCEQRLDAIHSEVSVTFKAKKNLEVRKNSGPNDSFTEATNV

C[C@@H](O)[C@H](NC(=O)N[C@@H](CC(N)=O)c1nc([C@@H](N)CO)no1)C(=O)O [CA-170]
EC50 value (Y2 assay taken for determination of IC50) (NeuropeptideY Y2; Y2): not calculable
effect at the highest validated testing concentration (NeuropeptideY Y2; Y2 concentration-response curve): less than 25%
% Inhibition of Control Specific Binding (Adenosine A1, A2A, A3): ≤ 26%
% Inhibition of Control Specific Binding (Somatostatin sst): 1%
PFS ([1]; advanced (stage 4) non-squamous NSCLC): 19.6 weeks
CBR ([1]; daily dose of 400 mg, advanced non-squamous NSCLC): > 85%
activity in NFAT-reporter-based assay (in words) (NFAT reporter): no activity
EC50 (PD-L2 [2]): 51.5 nM
IL2 ([3]; 10 nM): 70.45 pg/mL and 63.796 pg/mL and 63.436 pg/mL
IL2 ([3]; 100 nM): 83.976 pg/mL and 80.412 pg/mL and 77.892 pg/mL
IL2 ([3]; 1000 nM): 83.364 pg/mL and 84.022 pg/mL and 79.85 pg/mL
inhibition of B7-1-mediated IL-2 secretion (in words) ([3]; Jurkat cells stimulated with PHA + human B7-1): did not inhibit IL-2 secretion
% Inhibition of Control Specific Binding (Glutamate PCP): 5%
EC50 (PD-L2 [4]): 78.3 nM
% Inhibition of Control Specific Binding (GABA): 11%
% Inhibition of Control Specific Binding (purinergic P2X, P2Y): ≤ 3%
% Inhibition of Control Specific Binding (Galanin GAL1, GAL2): ≤ 12%
IFNγ Rescue (%) (PD-L1; 1.95 nM): -2.66% and -2.30% and -1.54%
IFNγ Rescue (%) (PD-L1; 3.91 nM): -2.42% and -2.56% and -1.54%
IFNγ Rescue (%) (PD-L1; 15.63 nM): 20.10% and 20.46% and 27.08%
IFN-γ (PD-L1; 31.25 nM): 256.5 pg/mL and 264 pg/mL and 296.5 pg/mL
IFNγ Rescue (%) (PD-L1; 31.25 nM): 21.31% and 22.51% and 31.08%
IFNγ Rescue (%) (PD-L1; 62.50 nM): 42.13% and 43.48% and 57.23%
IFNγ Rescue (%) (PD-L1; 250.00 nM): 76.76% and 83.89% and 104.62%
IFN-γ (PD-L1; 500 nM): 876.5 pg/mL and 939 pg/mL and 906.5 pg/mL
IFNγ Rescue (%) (PD-L1; 500.00 nM): 81.36% and 91.56% and 106.15%
rescue of IFNγ release inhibited by recombinant PD-L1 (in words) (PD-L1; human PBMCs stimulated with anti-CD3 and anti-CD28): rescued IFNγ release
EC50 (PD-L1; mean ± S.D., n=3): 66.1 nM
% Inhibition of Control Specific Binding [5]: ≤ 5%
% Inhibition of Control Specific Binding [6]: ≤ 14%
